In paper PMC5541792, “Simultaneous Determination of 11 Compounds in Gualou Guizhi Granule and Pharmacokinetics Study by UPLC-MS/MS” (Journal of Analytical Methods in Chemistry, 2017):

Tests used:
[1] = Stability of analytes in rat plasma samples (method validation); type: in vitro ADME; conditions: n = 6; for Autosampler stability (24 h) Mean: 4°C for 24 h; for Stability (24 h at room temperature) Mean: 25°C for 24 h; for Freeze-thaw stability (3 cycles) Mean: three freeze-thaw cycles at −80°C
Experimental: Stability of the analytes from plasma samples was performed by determining three different concentrations (low, middle, and high samples) in six replicates under different conditions. It included short-term stability which was assessed by keeping samples at room temperature (25°C) for 24 h, stability which was measured using samples stored at 4°C for 24 h, and freeze-thaw stability that was determined after three freeze-thaw cycles at −80°C.

[2] = Pharmacokinetic study in rats after oral administration of GLGZG (UPLC-MS/MS of plasma); type: in vivo, rat; conditions: for AUC(0–∞) / Tmax / MRT inf / half-life / Vd/F: rat plasma, male SD rats, oral GLGZG 3.6 g·(kg·day)^−1, n = 6; for MRT inf: read-out: MRT(0–∞) (converted); for half-life: read-out: T 1/2z; for Vd/F: read-out: Vz/F; for Plasma concentration-time behaviour (in words): rat plasma after oral GLGZG
Experimental: Chromatographic separation was performed on an Waters CORTECS C18 (2.1 × 100 mm, 1.6 μm) with the column temperature at 45°C. The mobile phase was composed of 0.1% formic acid in water (A) and acetonitrile (B) with a gradient program (0–0.5 min from 8% to 10% B; 0.5–2.5 min from 10% to 15% B; 2.5–4.0 min from 15% to 60% B; 4.0–5.0 min from 60% to 95% B; 5.0–6.5 min 95% B). The flow rate was 0.25 mL/min and the injection volume was 1 μL.
Mass spectrometry was operated using a Waters (Milford, MA) Xevo TQMS with an electrospray ion source (ESI) in the negative ion multiple reaction monitoring (MRM) mode. The other detailed MS parameters were as follows: drying gas: N2 (purity of 99.9%), 15 L/min, nebulizing gas: 50 L/min, capillary voltage: 2.5 kv.
Plasma samples (100 μL of plasma) and IS working solutions (10 μL of swertiamarin, kaempferol-3-O-rutinoside, and ginsenoside Rb1) were combined and briefly vortex-mixed for 3 min followed by the addition of 4-fold acetonitrile. Then the mixture was centrifuged at 12000 rpm for 10 min. The supernatant was transferred to a clean tube and concentrated up to dryness; the residue was dissolved in 100 μL 50% methanol. Finally, 1 μL aliquot was injected into UPLC-MS/MS system for analysis.
Six male SD rats, weighing 250 ± 20 g, were provided by Experimental Animal Research Center of Fujian TCM University (Fuzhou, China). And they were housed at controlled environmental conditions (temperature: 23 ± 2°C, relative humidity: 55 ± 10%) with free access to standard laboratory food and water. The rats were fasted for 12 h but with access to water before being given GLGZG (3.6 g·(kg·day)^−1). Blood samples of 0.3 mL were collected in heparin containing tubes from epicanthic veins of rats by capillary tube before dose (0 h) and at 5 min, 10 min, 20 min, 0.5 h, 1 h, 1.5 h, 2 h, 3 h, 6 h, 9 h, and 12 h. Then they were centrifuged at 12000 rpm for 10 min. The supernatant liquor was collected and frozen at −20°C until use.
The validated UPLC-MS/MS method was successfully applied to the PK studies of eleven analytes following oral administration of GLGZG to individual male rats (n = 6). The main pharmacokinetic parameters were summarized in Table 8 and the mean plasma concentration-time profiles of the eleven analytes were illustrated in Figure 3.

[3] = middle QC nominal concentration

Structure (SMILES) | Autosampler stability (24 h) Mean ([1]; high QC nominal concentration) [%] | Autosampler stability (24 h) Mean [1, 3] [%] | Stability (24 h at room temperature) Mean [1, 3] [%] | Freeze-thaw stability (3 cycles) Mean ([1]; high QC nominal concentration) [%] | Freeze-thaw stability (3 cycles) Mean ([1]; low QC nominal concentration) [%] | Freeze-thaw stability (3 cycles) Mean [1, 3] [%] | AUC(0–∞) [2] [mg·L/min] | Tmax [2] [h] | MRT inf [2] [h] | half-life [2] [h] | Vd/F [2] [L/kg] | Autosampler stability (24 h) Mean ([1]; low QC nominal concentration) [%] | Stability (24 h at room temperature) Mean ([1]; high QC nominal concentration) [%] | Stability (24 h at room temperature) Mean ([1]; low QC nominal concentration) [%] | Plasma concentration-time behaviour (in words) [2]
O=C(/C=C/c1ccc(O[C@@H]2O[C@H](CO)[C@@H](O)[C@H](O)[C@H]2O)cc1)c1ccc(O)cc1O [Isoliquiritin, isoliquiritin] | 95.62 | 97.14 | 99.28 | 108.88 | 98.98 | 94.03 | 27.17 ± 2.69 | 0.472 | 5.66 | 4.6 ± 0.866 | 297 ± 70 | – | – | – | –
CC1(C)[C@@H](O)CC[C@]2(C)[C@H]3C(=O)C=C4[C@@H]5C[C@@](C)(C(=O)O)CC[C@]5(C)CC[C@@]4(C)[C@]3(C)CC[C@@H]12 [Glycyrrhetinic acid, glycyrrhetinic acid] | – | – | – | – | – | – | 2041.10 ± 706.58 | 10 | 11.8 | 2.2 ± 0.472 | – | – | – | – | –
CC1(C)[C@@H](O[C@H]2O[C@H](C(=O)O)[C@@H](O)[C@H](O)[C@H]2O[C@@H]2O[C@H](C(=O)O)[C@@H](O)[C@H](O)[C@H]2O)CC[C@]2(C)[C@H]3C(=O)C=C4[C@@H]5C[C@@](C)(C(=O)O)CC[C@]5(C)CC[C@@]4(C)[C@]3(C)CC[C@@H]12 [Glycyrrhizic acid, glycyrrhizic acid] | – | 92.82 | 92.18 | 98.20 | 98.31 | 108.78 | 1262.61 ± 158.73 | 0.9 | 4.4 | 2.86 ± 0.561 | 3.92 ± 1.44 | 97.71 | 94.94 | 96.05 | double-peak phenomenon
O=C(/C=C/c1ccc(O)cc1)c1ccc(O)cc1O [Isoliquiritigenin, isoliquiritigenin] | 108.30 | 91.71 | 93.66 | 109.21 | 99.28 | 107.70 | 8.52 ± 0.98 | 0.5 | 4.76 | 3.4 ± 0.675 | 700 ± 187 | 106.19 | – | 99.77 | low in the blood
O=C1C[C@@H](c2ccc(O)cc2)Oc2cc(O)ccc21 [Liquiritigenin, liquiritigenin] | 97.16 | 93.53 | – | – | – | – | 20.38 ± 4.30 | 0.445 | 4.92 | 3.87 ± 0.477 | 341 ± 73.6 | 98.45 | 97.03 | – | –

Now from value to molecule, other results behind:

Autosampler stability (24 h) Mean ([1]; high QC nominal concentration) [%] | Autosampler stability (24 h) Mean [1, 3] [%] | Stability (24 h at room temperature) Mean [1, 3] [%] | Freeze-thaw stability (3 cycles) Mean ([1]; high QC nominal concentration) [%] | Freeze-thaw stability (3 cycles) Mean ([1]; low QC nominal concentration) [%] | Freeze-thaw stability (3 cycles) Mean [1, 3] [%] | AUC(0–∞) [2] [mg·L/min] | Tmax [2] [h] | MRT inf [2] [h] | half-life [2] [h] | Vd/F [2] [L/kg] | Autosampler stability (24 h) Mean ([1]; low QC nominal concentration) [%] | Stability (24 h at room temperature) Mean ([1]; high QC nominal concentration) [%] | Stability (24 h at room temperature) Mean ([1]; low QC nominal concentration) [%] | Structure (SMILES) | Plasma concentration-time behaviour (in words) [2]
107.72 | 111.49 | 93.66 | 98.89 | 99.77 | 108.14 | 1263.37 ± 306.91 | 1 | 3.59 | 2.13 ± 0.596 | 2.67 ± 0.87 | 97.93 | 108.45 | 94.78 | CC12CC(O)C3CC1(OC1OC(CO)C(O)C(O)C1O)C3(COC(=O)c1ccccc1)C(=O)O2 (stereo not drawn) [Albiflorin, albiflorin] | –
90.84 | 92.30 | – | 97.91 | 101.75 | 109.75 | 54.87 ± 14.40 | – | 5.93 | 5.16 ± 1.11 | 167 ± 35.9 | – | 106.73 | 95.70 | O=C1C[C@@H](c2ccc(O[C@@H]3O[C@H](CO)[C@@H](O)[C@H](O)[C@H]3O)cc2)Oc2cc(O)ccc21 [Liquiritin, liquiritin] | –
113.81 | 98.29 | 91.25 | – | 97.71 | 92.82 | 904.73 ± 317.76 | 1.33 | 3.93 | 2.38 ± 0.502 | 6.31 ± 1.63 | 103.46 | 109.75 | 105.66 | C[C@@]12C[C@@]3(O)O[C@@H](O1)[C@]1(COC(=O)c4ccccc4)[C@H]3C[C@@]12O[C@@H]1O[C@H](CO)[C@@H](O)[C@H](O)[C@H]1O [Paeoniflorin, paeoniflorin] | –
